Results reported in patent US11739082B2, “Thiophene compounds, process for synthesis and use thereof” (AHAMMUNE BIOSCIENCES PRIVATE LIMITED, priority 2017, dated 2023).
Structures can show the parent of a compound that is named as a salt.

Experiments:
human A375 cells = assay: Recovery of cell viability after tunicamycin-induced stress, MTT assay; format: cell-based; conditions: A-375, tunicamycin 100 ng/ml, 72 h
Protocol: (§1) Methods used for Experimental Data: Mouse B16F10 or human A375 cells were seeded (5000 cells per well) in 96-well plates for 24 h. Cells were then treated in quadruplicate with multiple concentrations of compounds for 6 h. The compounds were dissolved in DMSO at 1000× concentration and then diluted to final concentration directly in cell culture medium. The vehicle control (VC) contains equal amount of DMSO. Cells were then treated with tunicamycin (Tm) (300 ng/ml for B16F10 and 100 ng/ml for A375 cells) and after 72 h of treatment, MTT assay was performed. Cell growth in vehicle control was calculated as 100% and effect of the compounds over tunicamycin treatment was calculated accordingly. EC50 values were calculated using GraphPad Prism 7 software.

mouse B16F10 cells = assay: as above; format: cell-based; conditions: B16-F10, tunicamycin 300 ng/ml, 72 h
Protocol: as §1

Row | SMILES | EC50 (human A375 cells) | EC50 (mouse B16F10 cells)
1 | CCCCNC(=O)Cc1ccc(-c2ccc(Cl)cc2)s1 [AB1010, N-butyl-2-(5-(4-chlorophenyl)thiophen-2-yl)acetamide] | 5.22 µM | 6.55 µM
2 | O=C(Cc1ccc(-c2ccc(Cl)cc2)s1)NCCN1CCOCC1 [AB1062, 2-(5-(4-chlorophenyl)thiophen-2-yl)-N-(2-morpholinoethyl)acetamide hydrochloride] | 48.5 µM | 32.1 µM
3 | O=C(Cc1ccc(-c2ccc(F)cc2)s1)NCCN1CCOCC1 [AB1093, 2-(5-(4-fluorophenyl)thiophen-2-yl)-N-(2-morpholinoethyl)acetamide] | 31.2 µM | 36.2 µM
4 | O=C(Cc1ccc(-c2ccc(Cl)cc2Cl)s1)NCCN1CCOCC1 [AB1099, 2-(5-(2,4-dichlorophenyl)thiophen-2-yl)-N-(2-morpholinoethyl)acetamide] | 17.3 µM | 10 µM
5 | O=C(Cc1ccc(-c2ccccc2)s1)NCCN1CCOCC1 [AB1102, N-(2-morpholinoethyl)-2-(5-phenylthiophen-2-yl)acetamide] | 71.1 µM | 55.7 µM
6 | O=C(Cc1ccc(-c2cccc(F)c2)s1)NCCN1CCOCC1 [AB1108, 2-(5-(3-fluorophenyl)thiophen-2-yl)-N-(2-morpholinoethyl)acetamide] | 34.2 µM | 43.7 µM
7 | O=C(Cc1ccc(-c2ccc(Cl)cc2Cl)s1)NCCN1CCS(=O)(=O)CC1 [AB1109, 2-(5-(2,4-dichlorophenyl)thiophen-2-yl)-N-(2-(1,1-dioxidothiomorpholino)ethyl)acetamide] | 13.9 µM | 6.49 µM
8 | O=C(Cc1ccc(-c2ccc(Cl)cc2Cl)s1)NCCCN1CCOCC1 [AB1110, 2-(5-(2,4-dichlorophenyl)thiophen-2-yl)-N-(3-morpholinopropyl)acetamide] | 62.7 µM | 6.24 µM
9 | O=C(Cc1ccc(-c2cccc(Cl)c2)s1)NCCN1CCOCC1 [AB1113, 2-(5-(3-chlorophenyl)thiophen-2-yl)-N-(2-morpholinoethyl)acetamide] | 18.3 µM | 46.7 µM
10 | O=C(Cc1ccc(-c2cc(Cl)cc(Cl)c2)s1)NCCN1CCOCC1 [AB1114, 2-(5-(3,5-dichlorophenyl)thiophen-2-yl)-N-(2-morpholinoethyl)acetamide] | 4.26 µM | 12.5 µM
11 | COc1ccc(-c2ccc(CC(=O)NCCN3CCOCC3)s2)cc1 [AB1115, 2-(5-(4-methoxyphenyl)thiophen-2-yl)-N-(2-morpholinoethyl)acetamide] |  | 53.4 µM
12 | O=C(Cc1ccc(-c2ccc(C(F)(F)F)cc2)s1)NCCN1CCOCC1 [AB1116, N-(2-morpholinoethyl)-2-(5-(4-(trifluoromethyl)phenyl)thiophen-2-yl)acetamide] |  | 13.7 µM
13 | Cc1cc(C)n(-c2cccc(-c3ccc(CC(=O)NCCN4CCOCC4)s3)c2)n1 [AB1117, 2-(5-(3-(3,5-dimethyl-1H-pyrazol-1-yl)phenyl)thiophen-2-yl)-N-(2-morpholinoethyl) acetamide] | 26.7 µM | 20.7 µM
14 | O=C(Cc1ccc(-c2ccc(Cl)cc2)s1)NCCCN1CCOCC1 [AB1118, 2-(5-(4-chlorophenyl)thiophen-2-yl)-N-(3-morpholinopropyl)acetamide] | 31.6 µM | 19.5 µM
15 | O=C(Cc1ccc(-c2ccc(Cl)cc2Cl)s1)NCCCN1CCS(=O)(=O)CC1 [AB1119, 2-(5-(2,4-dichlorophenyl)thiophen-2-yl)-N-(3-(1,1-dioxidothiomorpholino)propyl)acetamide] | 8.47 µM | 9.51 µM
16 | O=C(Cc1ccc(-c2ccc(Cl)cc2)s1)N1CCOCC1 [AB1151, 2-(5-(4-chlorophenyl)thiophen-2-yl)-1-morpholinoethan-1-one] | 10.6 µM | 
17 | O=C(Cc1ccc(-c2ccc(Cl)cc2)s1)N1CCSCC1 [AB1152, 2-(5-(4-chlorophenyl)thiophen-2-yl)-1-thiomorpholinoethan-1-one] | 4.86 µM | 
18 | O=C(Cc1ccc(-c2cc(Cl)cc(Cl)c2)s1)NCCCN1CCOCC1 [AB1162, 2-(5-(3,5-dichlorophenyl)thiophen-2-yl)-N-(3-morpholinopropyl)acetamide] | 6.02 µM | 
19 | O=C(Cc1ccc(-c2cc(Cl)cc(Cl)c2)s1)NCCN1CCS(=O)(=O)CC1 [AB1163, 2-(5-(3,5-dichlorophenyl)thiophen-2-yl)-N-(2-(1,1-dioxidothiomorpholino)ethyl)acetamide] | 5.15 µM | 
20 | O=C(Cc1ccc(-c2cc(Cl)cc(Cl)c2)s1)NCCCN1CCS(=O)(=O)CC1 [AB1164, 2-(5-(3,5-dichlorophenyl)thiophen-2-yl)-N-(3-(1,1-dioxidothiomorpholino)propyl)acetamide] | 3.7 µM | 9.72 µM
